Assay results published in PMC8132114 (ACS combinatorial science, 2019).
*1 amine or outer side, *2 acyl side, *3 side chain or, on linkers, in order; H or OH if unused. Where a SMILES comes first, the peptide text is derived from it. [ ]: non-standard residue; d: D form. The star is where a group is joined. X1 = O=C([C@H](CCON=Cc1c(Cl)cncc1Cl)N[*:1])[*:2]; Biotin = O=C1N[C@H]2[C@H](CS[C@H]2CCCCC(=O)*)N1; pY = N[C@@H](Cc1ccc(OP(=O)(O)O)cc1)C(=O)O; Ahx = NCCCCCC(=O)O

Biological target: VH1 C110S
Assay type: binding, Variola major
Conditions: pH 6.2

`CC(C)[C@H](NC(=O)CCCCCNC(=O)CCCC[C@@H]1SC[C@@H]2NC(=O)N[C@@H]21)C(=O)N[C@@H](CC(=O)O)C(=O)N[C@@H](C)C(=O)N[C@@H](CC(=O)O)C(=O)N[C@@H](CCC(=O)O)C(=O)N[C@@H](Cc1ccc(OP(=O)(O)O)cc1)C(=O)N[C@@H](CCON=Cc1c(Cl)cncc1Cl)C(N)=O` [Peptide 6f-w202] ({Biotin-Ahx}-VDADE[pY][X1]-NH2) gave a Kd of 73 ± 27 nM.
